Data set [1] concerns the target T1, HIV-1 RT-associated RNase H (Human immunodeficiency virus type 1 group M subtype B, UniProt P03366).
T1 construct: His-tagged p66/p51 HIV-1 RT group M subtype B; His tag; made in house; host or cells: Escherichia coli strain M15 (plasmid p6HRT-prot)
Put plainly: RNase H polymerase-independent cleavage assay. In kind it is biochemical. The conditions noted are these: for IC50: IC50, compound concentration required to reduce HIV-1 RT-associated RNase H activity by 50%; for remaining activity at 100 µM: read-out: Percentage of the control activity measured at the indicated compound concentration. The method, then: The Ar^1 and Ar^2 aromatic segments of the molecule also approach the protein surface, through hydrophobic interactions. These findings provide important information for further structural optimization. All these newly designed thiazolone[3,2-a]pyrimidine derivatives were evaluated for their inhibitory activity against HIV RT-associated RNase H, using the diketo acid RDS1643 as positive control. […] The decrease in activity observed in compounds containing a sulfonic acid group might be attributed to the excessively strong acidity of the sulfonic acid group, which could protonate the diazo group within the molecule. […] When Ar^2 was changed from a phenyl group to a naphthyl group, the activity of compound 10f gained a great improvement over that of compound 10k. […] And when a negatively charged polar group was present at the 2-position of Ar^2, the inhibitory activity is enhanced. […]
3. Biology Experimental section
3.1 Expression and purification of recombinant HIV-1 RTs.
His-tagged p66/p51 HIV-1 RT group M subtype B coded in a p6HRT-prot plasmid was expressed in the Escherichia coli strain M15.1 Heterodimeric RTs were expressed essentially and purified as described.2 E. coli cells harboring the expression vector were cultured until reaching an optical density at 600 nm of 0.7. Induction of protein expression was achieved by treating the cells with 1.7 mM isopropyl β-D-1-thiogalactopyranoside (IPTG) for a duration of 4 hours. The subsequent purification of the protein was performed using a BioLogic LP system (BioRad) employing a combination of immobilized metal affinity chromatography and ion exchange […]
To initiate the purification process, the cell pellets were resuspended in lysis buffer at a ratio of 1:2 (cell pellet volume: lysis buffer volume). The lysis buffer used consisted of 50 mM sodium phosphate buffer with a pH of 7.8, supplemented with 0.5 mg/ml lysozyme. The resuspended cells were incubated on ice for 20 minutes. Following this, NaCl was added to achieve a final concentration of 0.3 M. The cells were then subjected to sonication, with four cycles of 60 seconds each, alternating between one second on and one second off. Subsequently, the cell lysate was centrifuged at 30, 000×g for 1 […]
The supernatant obtained from the centrifugation step was loaded onto a Ni2+-NTA-Sepharose column that had been pre-equilibrated with a loading buffer consisting of 50 mM sodium phosphate buffer (pH 7.8), 0.3 M NaCl, 10% glycerol, and 10 mM imidazole. The column was washed with a buffer containing 50 mM sodium phosphate buffer (pH 6.0), 0.3 M NaCl, 10% glycerol, and 80 mM imidazole. The target protein, RT, was eluted using an imidazole gradient ranging from 0.08 M to 0.5 M in the wash buffer. Fractions containing the enzyme were collected and combined, and then diluted 1:1 with 50 mM sodium phosphate buffer (pH 7.0) containing 10% glycerol. The diluted protein sample was loaded onto a Hi-trap heparin HP column that had been pre-equilibrated with 10 column volumes of a loading buffer consisting of 50 mM sodium phosphate buffer (pH 7.0), 10% glycerol, and 150 mM NaCl. The column was washed with the loading buffer, and the RT enzyme was eluted using Elute Buffer 2, which
(1 picture or pasted object on this page, not shown here) […]
comprised 50 mM sodium phosphate buffer (pH 7.0), 10% glycerol, and 1 M NaCl.
The eluted fractions containing the purified protein were collected, and the protein was subsequently dialyzed and stored in a buffer composed of 50 mM Tris-HCl (pH 7.0), 25 mM NaCl, 1 mM EDTA, and 50% glycerol. The catalytic activities of the purified protein samples were determined, and aliquots were stored at -80 °C for further use.
3.2 RNase H Polymerase-Independent Cleavage Assay
The HIV-1 RT-associated RNase H activity was measured as described.3 In summary, the reaction was performed in a black 96-well plate with a total volume of 100 μL. The reaction mix consisted of 50 mM Tris HCl (pH 7.8), 6 mM MgCl2, 1 mM dithiothreitol […]

Where [2] appears, read: recombinant HIV-1 wt RT, hybrid RNA/DNA substrate, 37 °C, 1 hour.

This is an account of results in paper PMC11085872, “Structure-Based Design of Novel Thiazolone[3,2-a]pyrimidine Derivatives as Potent RNase H Inhibitors for HIV Therapy” (Molecules, 2024).

One may read the IC50 as the point on the concentration scale where inhibition reaches its midpoint. As a reminder, the melting point is the temperature, or range, at which the solid turns liquid. `COC(=O)C1=C(C)N=C2SC(=NNc3ccccc3O)C(=O)N2C1c1ccccc1` (centres unmarked) [Compound 10a, Methyl 2-(2-(2-hydroxyphenyl)hydrazineylidene)-7-methyl-3-oxo-5-phenyl-2,3-dihydro-5H-thiazolo[3,2-a]pyrimidine-6-carboxylate] had a melting point of 227 to 229 °C. Besides, the concentration for half-maximal inhibition (IC50) in data set [1] (setting [2]) worked out at 18.2 ± 0.85 µM.
For `COC(=O)C1=C(C)N=C2SC(=NNc3cc(OC)c(OC)c(OC)c3)C(=O)N2C1c1ccccc1` (centres unmarked) [Compound 10c, Methyl 7-methyl-3-oxo-5-phenyl-2-(2-(3,4,5-trimethoxyphenyl)hydrazineylidene)-2,3-dihydro-5H-thiazolo[3,2-a]pyrimidine-6-carboxylate], the melting point lay in the range of 211 to 213 °C. Further, in data set [1] (setting [2]), the half-maximal inhibitory concentration (IC50) came to 24.4 ± 1.25 µM.
The matching figures for `COC(=O)C1=C(C)N=C2S/C(=N\Nc3ccccc3C(=O)OC)C(=O)N2C1c1ccccc1` (centres unmarked) [Compound 10d, Methyl 2-((2-(methoxycarbonyl)phenyl)diazenyl)-7-methyl-3-oxo-5-phenyl-2,3-dihydro-5H-thiazolo[3,2-a]pyrimidine-6-carboxylate]: 184 to 186 °C and 8.27 ± 0.39 µM.
In turn, `COC(=O)C1=C(C)N=C2SC(=NNc3ccc(OC)cc3S(=O)(=O)O)C(=O)N2C1c1ccccc1` (centres unmarked) [Compound 10e, 5-Methoxy-2-(2-(6-(methoxycarbonyl)-7-methyl-3-oxo-5-phenyl-5H-thiazolo[3,2-a]pyrimidin-2(3H)-ylidene)hydrazineyl)benzenesulfonic acid] had a melting point of 247 to 249 °C. Moreover, the half-inhibitory concentration (IC50) in data set [1] (setting [2]) is 58.4 ± 1.71 µM.
`COC(=O)C1=C(C)N=C2S/C(=N\Nc3ccc4ccccc4c3S(=O)(=O)O)C(=O)N2C1c1ccccc1` (centres unmarked) [Compound 10f] had a melting point of 289 to 293 °C. In addition, the IC50 in data set [1] (setting [2]) is 7.04 ± 0.57 µM.
In turn, `COC(=O)C1=C(C)N=C2SC(=NNc3ccccc3C(C)=O)C(=O)N2C1c1ccccc1` (centres unmarked) [Compound 10g, Methyl 2-(2-(2-acetylphenyl)hydrazineylidene)-7-methyl-3-oxo-5-phenyl-2,3-dihydro-5H-thiazolo[3,2-a]pyrimidine-6-carboxylate] showed a melting point of 199 to 202 °C. The half-inhibitory concentration (IC50) in data set [1] (setting [2]) was determined as 9.01 ± 2.17 µM.
The matching figures for `COC(=O)C1=C(C)N=C2SC(=NNc3ccc(OC)c(OC)c3)C(=O)N2C1c1ccccc1` (centres unmarked) [Compound 10h, Methyl 2-(2-(3,4-dimethoxyphenyl)hydrazineylidene)-7-methyl-3-oxo-5-phenyl-2,3-dihydro-5H-thiazolo[3,2-a]pyrimidine-6-carboxylate]: 204 to 206 °C and 14.4 ± 1.23 µM.
With `COC(=O)C1=C(C)N=C2SC(=NNc3ccccc3OC)C(=O)N2C1c1ccccc1` (centres unmarked) [Compound 10i, Methyl 2-(2-(2-methoxyphenyl)hydrazineylidene)-7-methyl-3-oxo-5-phenyl-2,3-dihydro-5H-thiazolo[3,2-a]pyrimidine-6-carboxylate], the melting point lay in the range of 189 to 192 °C. For the same molecule, the IC50 in data set [1] (setting [2]) came to 8.32 ± 0.06 µM.
Take `COC(=O)C1=C(C)N=C2SC(=NNc3ccccc3)C(=O)N2C1c1ccccc1` (centres unmarked) [Compound 10j, Methyl 7-methyl-3-oxo-5-phenyl-2-(2-phenylhydrazineylidene)-2,3-dihydro-5H-thiazolo[3,2-a]pyrimidine-6-carboxylate]: the melting point fell in the range of 124 to 127 °C. Besides, in data set [1] (setting [2]), the IC50 is 21.45 ± 0.1 µM.
As to `COC(=O)C1=C(C)N=C2S/C(=N\Nc3ccccc3S(=O)(=O)O)C(=O)N2C1c1ccccc1` (centres unmarked) [Compound 10k, (2-(6-(Methoxycarbonyl)-7-methyl-3-oxo-5-phenyl-5H-thiazolo[3,2-a]pyrimidin-2(3H)-ylidene)hydrazineyl)benzenesulfonic acid], the melting point lay in the range of 262 to 266 °C. Further, in data set [1] (setting [2]), the 50% inhibitory concentration (IC50) is above 100 µM. Further, in data set [1], the remaining activity at 100 µM is 85%.
In the case of `COC(=O)C1=C(C)N=C2SC(=NNc3cccc([N+](=O)[O-])c3)C(=O)N2C1c1ccccc1` (centres unmarked) [Compound 10l, Methyl 7-methyl-2-(2-(3-nitrophenyl)hydrazineylidene)-3-oxo-5-phenyl-2,3-dihydro-5H-thiazolo[3,2-a]pyrimidine-6-carboxylate], the melting point lay within 250 to 252 °C. Further, the half-inhibitory concentration (IC50) in data set [1] (setting [2]) worked out at 6.41 ± 0.24 µM.
The molecule `COC(=O)C1=C(C)N=C2SC(=NNc3cccc(C(C)=O)c3)C(=O)N2C1c1ccccc1` (centres unmarked) [Compound 10m, Methyl 2-(2-(3-acetylphenyl)hydrazineylidene)-7-methyl-3-oxo-5-phenyl-2,3-dihydro-5H-thiazolo[3,2-a]pyrimidine-6-carboxylate] had a melting point of 213 to 216 °C. Further, the IC50 in data set [1] (setting [2]) turned out to be 18.4 ± 0.79 µM.
The matching figures for `COC(=O)C1=C(C)N=C2SC(=NNc3cccc(C(=O)OC)c3)C(=O)N2C1c1ccccc1` (centres unmarked) [Compound 10n, Methyl 2-(2-(3-(methoxycarbonyl)phenyl)hydrazineylidene)-7-methyl-3-oxo-5-phenyl-2,3-dihydro-5H-thiazolo[3,2-a]pyrimidine-6-carboxylate]: 214 to 216 °C and 7.03 ± 0.17 µM.
`COC(=O)C1=C(C)N=C2SC(=NNc3ccccc3OC)C(=O)N2C1c1ccc(OC)c(OC)c1OC` (centres unmarked) [Compound 11a, Methyl 2-(2-(2-methoxyphenyl)hydrazineylidene)-7-methyl-3-oxo-5-(2,3,4-trimethoxyphenyl)-2,3-dihydro-5H-thiazolo[3,2-a]pyrimidine-6-carboxylate]: the melting point was in the range of 178 to 180 °C. Besides, the half-maximal inhibitory concentration (IC50) in data set [1] (setting [2]) worked out at 11.8 ± 0.91 µM.
The matching figures for `COC(=O)C1=C(C)N=C2SC(=NNc3ccccc3)C(=O)N2C1c1ccc(OC)c(OC)c1OC` (centres unmarked) [Compound 11b, Methyl 7-methyl-3-oxo-2-(2-phenylhydrazineylidene)-5-(2,3,4-trimethoxyphenyl)-2,3-dihydro-5H-thiazolo [3,2-a]pyrimidine-6-carboxylate]: 189 to 192 °C and 48.9 ± 4.73 µM.
The molecule `COC(=O)C1=C(C)N=C2SC(=NNc3cccc([N+](=O)[O-])c3)C(=O)N2C1c1ccc(OC)c(OC)c1OC` (centres unmarked) [Compound 11d, Methyl 7-methyl-2-(2-(3-nitrophenyl)hydrazineylidene)-3-oxo-5-(2,3,4-trimethoxyphenyl)-2,3-dihydro-5H-thiazolo[3,2-a]pyrimidine-6-carboxylate] had a melting point of 236 to 238 °C. Further, the IC50 in data set [1] (setting [2]) worked out at 10.1 ± 1.64 µM.
With `COC(=O)C1=C(C)N=C2SC(=NNc3ccccc3S(=O)(=O)O)C(=O)N2C1c1ccc(OC)c(OC)c1OC` (centres unmarked) [Compound 11e, 2-(2-(6-(Methoxycarbonyl)-7-methyl-3-oxo-5-(2,3,4-trimethoxyphenyl)-5H-thiazolo[3,2-a]pyrimidin-2(3H)-ylidene)hydrazineyl)benzenesulfonic acid], the melting point is 238 to 240 °C. In addition, the IC50 in data set [1] (setting [2]) was above 100 µM. Further, the remaining activity at 100 µM in data set [1] was found to be 97%.
The molecule `COC(=O)C1=C(C)N=C2S/C(=N\Nc3ccc4ccccc4c3S(=O)(=O)O)C(=O)N2C1c1ccc(OC)c(OC)c1OC` (centres unmarked) [Compound 11g, (2-(6-(Methoxycarbonyl)-7-methyl-3-oxo-5-(2,3,4-trimethoxyphenyl)-5H-thiazolo[3,2-a]pyrimidin-2(3H)-ylidene)hydrazineyl)naphthalene-1-sulfonic acid] yielded a melting point of 241 to 244 °C.
Take `CCOC(=O)C(=O)CC(=O)/C=C/c1cccn1Cc1ccc(F)cc1` [RDS1643, reference compound]: in data set [1] (setting [2]), the “IC50, compound concentration required to reduce HIV-1 RT-associated RNase H activity by 50%” value came out at 8.6 ± 1.30 µM.
